Experimental data published in patent publication US11666541B2, “Systems and methods for feeding sugar alcohol to ruminants during periods of heat stress” (PURINA ANIMAL NUTRITION LLC, priority 2012, dated 2023).

What was measured:
Format in all cases: in vivo
[1] = system: heat stressed lactating dairy cattle in a post-peak phase of lactation; assay: Example 1: feeding about 100 grams of sorbitol per day to heat stressed lactating dairy cattle in post-peak phase, with and without evaporative cooling
Source text: In the Examples below, statistical analysis was completed for parameters studied such as milk yield, energy corrected milk (ECM), fat corrected milk (FCM), and dry matter intake. A P value of 0.10 means that 10 times out of 100 the results can be explained by factors other than the feeding of sorbitol versus the lack of sorbitol feeding. Likewise, a P value of 0.75 means that 75 times out of 100, the difference in value between the control group and the sorbitol-fed group may be explained by factors other than the feeding of the increased rate(s) of supplemental feed versus the lower rate of feeding of the supplemental feed (e.g., 4 pounds per head per day). For purposes of comparing data in this document, P values of 0.15, or lower, are considered statistically significant. Thus, where a P value of 0.15 or less is returned for particular results, it is assumed that the differing results may be explained by the test regimen, i.e.: the feeding of the increased rate(s) of supplemental feed versus the lower rate of feeding of the supplemental feed (e.g., 4 pounds per head per day). […] In this example, 32 multiparous cows were blocked by production and days in milk into one of two diets, a control diet without sorbitol and a diet with sorbitol, and each treatment group was divided into two cooling treatments. The four treatment groups included 1) a control diet with fans and no mist; 2) a sorbitol-supplemented diet with fans and no mist; 3) a control diet with fans and mist; and 4) a sorbitol-supplemented diet with fans and mist. During the study, the ambient temperature was between 70 degrees and 85 degrees during 51 percent of study and was greater than 85 degrees during 13 percent of the study. Heat stress in the dairy cattle was observed through changes in performance as well as increased respiration rates. Dairy cattle performance and respiration rates for the dairy cattle not receiving mister cooling is compared to dairy cattle receiving mist treatment in Table 1. The sorbitol in the sorbitol-supplemented diets was processed as an extruded pellet and added to other grain concentrates prior to final addition and delivery to the ruminant. [table] [table]

[2] = system: heat stressed transition dairy cattle; assay: Example 2: feeding sorbitol to heat stressed transition dairy cattle (about 150 g/d prior to calving, about 125 g/d after), with and without evaporative cooling
Source text: In this example, the dairy cattle were blocked in the same manner as Example 1. During the study, the ambient temperature was between 70 degrees and 85 degrees during 62 percent of study and was greater than 85 degrees during 18 percent of the study.
After 30 days in milk, all postfresh cows were fed a common diet until 60 days post partum. The nutrient analysis of the total mixed rations for the control and sorbitol diets provided during the study are shown in Table 5C:
As provided in FIGS. 5A and 5B, sorbitol was provided in a base mix at a rate of 1.5 pounds per day for prefresh dairy cattle (e.g., for 28 days prior to calving) and at a rate of 1.25 pounds per day for post fresh dairy cattle (e.g., for 30 days post-calving).
From day 30 to day 60, all dairy cattle study groups received the same diet free of sorbitol (see Table 5).

[3] = system: dairy cattle in mid-lactation; assay: Example 3: feeding sorbitol at about 100 grams per day to dairy cattle in mid-lactation, with and without misters; details: for 3.5% FCM / Body Weight / Daily Milk Yield / Dry Matter Intake / ECM / Milk Fat / Milk Protein: about 100 g/day
Source text: 64 dairy cattle were separated into four pens of 16 dairy cattle each pen was provided one of the four treatments described above in connection with Example 1. The treatment groups receiving sorbitol in the diet were provided 1 pound of premix per day during a ten week testing period. During the study, the temperature was between 70 degrees and 85 degrees during […] of study and was greater than 85 degrees during 25 percent of the study. […] [table] [table]

[4] = about 100 g sorbitol/day, post-peak, pooled across cooling strategies and day
[5] = sorbitol without mister treatment
[6] = day 0 to 30 postpartum, Misters
[7] = day 0 to 30 postpartum, No Misters
[8] = day 0 to 60 postpartum (sorbitol-free common diet from day 30), Misters
[9] = day 0 to 60 postpartum (sorbitol-free common diet from day 30), No Misters

In the case of `OC[C@@H](O)[C@@H](O)[C@H](O)[C@@H](O)CO` [Sorbitol, sorbitol], the DMI [1, 4] is reported as 24.7 kg/day, the “Daily Milk” value [1, 4] is reported as 39.4 kg/day and the ECM [1, 4] is reported as 37.2 kg/day. The FCM [1, 4] was 36.8 kg/day, the “Fat” value [1, 4] was 1.23 kg/day and the “Fat, %” value [1, 4] was 3.16%. The “Milk to Feed” value [1, 4] was 1.60, the “Protein” value [1, 4] was 1.12 kg/day and the “Protein, %” value [1, 4] was 2.87%. The Respiration rates [1, 4] was 63.0, the “performance: daily milk, ECM, FCM (FIG. 1)” value ([1]; sorbitol and mister treatment) was “best overall performance in comparison to all other groups studied” and the “milk-to-feed ratio (FIG. 3)” value ([1]; sorbitol group with mister treatment) was 1.64 kg of milk for every kg of dry matter consumed. For the same compound, the “milk-to-feed ratio (FIG. 3)” value ([1]; sorbitol group without mister treatment) was 1.55 kg of milk for every kg of dry matter consumed, the “difference in ECM” value ([1]; sorbitol group without mister treatment vs control group with misters) was 0.3 kg/day and the “FCM results vs control” value ([1]; sorbitol with and without mister treatment) was “performed better than the control group with mister treatment and significantly better than the control group without mister treatment”. For the same compound, the “variation of dry matter intake between the two sorbitol groups” value ([1]; sorbitol with vs without misters) was 0.4 kg/day, the “ECM results vs control” value [1, 5] was “performed significantly better than the control group without sorbitol and mister treatment” and the “performance: daily milk, ECM, FCM (FIG. 1)” value [1, 5] was “performed better than the control group without misters in all performance areas”. The “daily dry matter intake (FIG. 2)” value ([1]; the other groups (both sorbitol groups and control without misters) vs 28 for control with misters) was 25 kg/day, the “Body Weight, post” value [2, 6] was 1259 lbs and the “DMI as % BW” value [2, 6] was 3.05%. For the same compound, the “Daily Milk Yield” value [2, 6] was 78.7 lbs/d, the “Dry Matter Intake” value [2, 6] was 37.8 lbs/d and the ECM [2, 6] was 80.2 lbs/d. The FCM [2, 6] was 80.7 lbs/d, the “Milk Fat” value [2, 6] was 3.53% and the “Milk Protein” value [2, 6] was 2.81%. For the same compound, the “Milk-to-Feed Ratio” value [2, 6] was 2.08, the “Body Weight, post” value [2, 7] was 1232 lbs and the “DMI as % BW” value [2, 7] was 3.03%. The “Daily Milk Yield” value [2, 7] was 74.4 lbs/d, the “Dry Matter Intake” value [2, 7] was 36.8 lbs/d and the ECM [2, 7] was 75.2 lbs/d. The FCM [2, 7] was 75.5 lbs/d, the “Milk Fat” value [2, 7] was 3.42% and the “Milk Protein” value [2, 7] was 2.81%. The “Milk-to-Feed Ratio” value [2, 7] was 2.05, the “increase in milk yield compared to the control group without mister treatment” value ([2]; day 0 to 30 postpartum, sorbitol and mister treatment) was “about 11.5 pounds per day” and the “increase in milk yield compared to the control group without mister treatment” value ([2]; day 0 to 30 postpartum, sorbitol without mister treatment) was “about 7.2 pounds per day”. The “Body Weight, post” value [2, 8] was 1261 lbs, the “DMI as % BW” value [2, 8] was 3.45% and the “Daily Milk Yield” value [2, 8] was 84.3 lbs/d. For the same compound, the “Dry Matter Intake” value [2, 8] was 42.9 lbs/d, the ECM [2, 8] was 79.8 lbs/d and the FCM [2, 8] was 80.4 lbs/d. For the same compound, the “Milk - to - Feed” value [2, 8] was 2.00, the “Milk Fat” value [2, 8] was 3.17% and the “Milk Protein” value [2, 8] was 2.66%. For the same compound, the “Milk - to - Feed” value ([2]; day 0 to 60 postpartum (sorbitol-free common diet from day 30), Misters, listed as sorbitol) was 2.0, the “Body Weight, post” value [2, 9] was 1231 lbs and the “DMI as % BW” value [2, 9] was 3.32%. For the same compound, the “Daily Milk Yield” value [2, 9] was 81.2 lbs/d, the “Dry Matter Intake” value [2, 9] was 41.1 lbs/d and the ECM [2, 9] was 77.3 lbs/d. The FCM [2, 9] was 77.7 lbs/d, the “Milk - to - Feed” value [2, 9] was 1.97 and the “Milk Fat” value [2, 9] was 3.12%. For the same compound, the “Milk Protein” value [2, 9] was 2.66%, the “increase in milk yield compared to the control group without mister treatment” value ([2]; day 0 to 60 postpartum, sorbitol and mister treatment) was “about 11.3 pounds per day” and the “increase in milk yield compared to the control group without mister treatment” value ([2]; day 0 to 60 postpartum, sorbitol without mister treatment) was “about 8.2 pounds per day”. The “beta hydroxy butyrate (BHBA) levels (FIG. 4)” value ([2]; transition phase, sorbitol groups vs control without misters) was “control group without mister treatment experienced a spike in BHBA levels compared to the sorbitol groups”, the “3.5% FCM” value ([3]; Misters) was 66.7 lbs/d and the “Body Weight” value ([3]; Misters) was 1373 lbs. For the same compound, the “Daily Milk Yield” value ([3]; Misters) was 73.7 lbs/d, the “Dry Matter Intake” value ([3]; Misters) was 49.4 lbs/d and the ECM ([3]; Misters) was 68.1 lbs/d. The “Milk Fat” value ([3]; Misters) was 2.92%, the “Milk Protein” value ([3]; Misters) was 2.92% and the “3.5% FCM” value ([3]; No Misters) was 66.0 lbs/d. For the same compound, the “Body Weight” value ([3]; No Misters) was 1393 lbs, the “Daily Milk Yield” value ([3]; No Misters) was 71.9 lbs/d and the “Dry Matter Intake” value ([3]; No Misters) was 51.2 lbs/d. The ECM ([3]; No Misters) was 67.3 lbs/d, the “Milk Fat” value ([3]; No Misters) was 3.03% and the “Milk Protein” value ([3]; No Misters) was 2.92%. For the same compound, the “increase in milk yield compared to the control group without mister treatment” value ([3]; sorbitol and mister treatment) was “about 3.5 pounds per day” and the “increase in milk yield compared to the control group without mister treatment” value [3, 5] was “about 1.7 pounds per day”.
